What follows are molecules tested on mouse FL5.12 cells transfected with Bcl-xL (assay: FL5.12 cellular assay (cell viability, CellTiter-Glo)). Conditions: IL-3-depleted, 3% FBS assay media, 24 hours, read-out: FL5.12 Bcl-xL, -IL3, EC50.
Assay type: cell-based
Experimental: Cell viability was assayed using the CellTiter-Glo assay (Promega Corp., Madison, WI) according to the manufacturer instructions. Individual determinations were the result of duplicate values. […] Table 2. In Vitro Data
In the case of `O=C(Nc1nc2ccccc2s1)c1cccc2c1CN(c1ccc(-c3cnn(CC45CC6CC(C4)CC(OCCN4CCOCC4)(C6)C5)c3)c(C(=O)O)n1)CC2` [Example 26, 6-[8-(1,3-benzothiazol-2-ylcarbamoyl)-3,4-dihydroisoquinolin-2(1H)-yl]-3-[1-({3-[2-(morpholin-4-yl)ethoxy]tricyclo[3.3.1.1^3,7]dec-1-yl}methyl)-1H-pyrazol-4-yl]pyridine-2-carboxylic acid], the EC50 is reported as 0.243 µM.
In the case of `COC12CC3CC(CC(Cn4ncc(-c5ccc(N6CCc7cccc(C(=O)Nc8nc9ccccc9s8)c7C6)nc5C(=O)NS(=O)(=O)N5CCOCC5)c4C)(C3)C1)C2` [Example 39, N-(1,3-benzothiazol-2-yl)-2-{5-(1-{[3-methoxytricyclo[3.3.1.1^3,7]dec-1-yl]methyl}-5-methyl-1 H-pyrazol-4-yl)-6-[(morpholin-4-ylsulfonyl)carbamoyl]pyridin-2-yl}-1,2,3,4-tetrahydroisoquinoline-8-carboxamide], the EC50 is reported as 0.0006 µM.
For `CC(C)OC12CC3CC(CC(Cn4cc(-c5ccc(N6CCc7cccc(C(=O)Nc8nc9ccccc9s8)c7C6)nc5C(=O)O)cn4)(C3)C1)C2` [Example 12, 6-[8-(1,3-benzothiazol-2-ylcarbamoyl)-3,4-dihydroisoquinolin-2(1H)-yl]-3-(1-{[3-(propan-2-yloxy)tricyclo[3.3.1.1^3,7]dec-1-yl]methyl}-1H-pyrazol-4-yl)pyridine-2-carboxylic acid], the EC50 was 0.024 µM.
With `Cc1c(-c2ccc(N3CCc4cccc(C(=O)Nc5nc6ccccc6s5)c4C3)nc2C(=O)O)nnn1CC12CC3CC(CC(C3)C1)C2` [Example 57, 6-[8-(1,3-benzothiazol-2-ylcarbamoyl)-3,4-dihydroisoquinolin-2(1H)-yl]-3-[5-methyl-1-(tricyclo[3.3.1.1^3,7]dec-1-ylmethyl)-1H-1,2,3-triazol-4-yl]pyridine-2-carboxylic acid] the EC50 was 0.012 µM.
Molecule `Cc1c(-c2ccc(N3CCc4cccc(C(=O)Nc5nc6ccccc6s5)c4C3)nc2C(=O)O)cc(C#N)n1CCC12CC3CC(CC(C3)C1)C2` [Example 34, 6-[8-(1,3-benzothiazol-2-ylcarbamoyl)-3,4-dihydroisoquinolin-2(1H)-yl]-3-{5-cyano-2-methyl-1-[2-(tricyclo[3.3.1.1^3,7]dec-1-yl)ethyl]-1H-pyrrol-3-yl}pyridine-2-carboxylic acid] has an EC50 of 0.15 µM.
In the case of `Cc1cc(OCC23CC4CC(CC(C4)C2)C3)ccc1-c1ccc(N2CCc3cccc(C(=O)Nc4nc5ccccc5s4)c3C2)nc1C(=O)O` [Example 20, 6-[8-(1,3-benzothiazol-2-ylcarbamoyl)-3,4-dihydroisoquinolin-2(1H)-yl]-3-{2-methyl-4-[tricyclo[3.3.1.1^3,7]dec-1-ylmethoxy]phenyl}pyridine-2-carboxylic acid], the EC50 is reported as greater than 1 µM.
Work on `Cc1c(-c2ccc(N3CCc4cccc(C(=O)Nc5nc6ccccc6s5)c4C3)nc2C(=O)O)ccnc1NC12CC3CC(CC(C3)C1)C2` [Example 76, 6-[8-(1,3-benzothiazol-2-ylcarbamoyl)-3,4-dihydroisoquinolin-2(1H)-yl]-3'-methyl-2'-(tricyclo[3.3.1.1^3,7]dec-1-ylamino)-3,4'-bipyridine-2-carboxylic acid] yielded an EC50 of 0.071 µM.
For `N#Cc1c(-c2ccc(N3CCc4cccc(C(=O)Nc5nc6ccccc6s5)c4C3)nc2C(=O)O)cnn1CC12CC3CC(CC(C3)C1)C2` [Example 29, 6-[8-(1,3-benzothiazol-2-ylcarbamoyl)-3,4-dihydroisoquinolin-2(1H)-yl]-3-{5-cyano-1-[tricyclo[3.3.1.1^3,7]dec-1-ylmethyl]-1H-pyrazol-4-yl}pyridine-2-carboxylic acid], the EC50 was 0.003 µM.
For `Cc1c(-c2ccc(N3CCc4cccc(C(=O)Nc5nc6ccccc6s5)c4C3)nc2C(=O)O)cnn1CC12CC3CC(C1)CC(OCC1CCOCC1)(C3)C2` [Example 53, 6-[8-(1,3-benzothiazol-2-ylcarbamoyl)-3,4-dihydroisoquinolin-2(1H)-yl]-3-(5-methyl-1-{[3-(tetrahydro-2H-pyran-4-ylmethoxy)tricyclo[3.3.1.1^3,7]dec-1-yl]methyl}-1H-pyrazol-4-yl)pyridine-2-carboxylic acid], the EC50 was 0.004 µM.
Molecule `Cc1c(-c2ccc(N3CCc4cccc(C(=O)Nc5nc6ccccc6s5)c4C3)nc2C(=O)O)ccnc1N(C)C1CCCCCCC1` [Example 61, 6-[8-(1,3-benzothiazol-2-ylcarbamoyl)-3,4-dihydroisoquinolin-2(1H)-yl]-2'-[cyclooctyl(methyl)amino]-3'-methyl-3,4'-bipyridine-2-carboxylic acid] has an EC50 of 0.01 µM.
`Cc1c(-c2ccc(N3CCc4cccc(C(=O)Nc5nc6ccccc6s5)c4C3)nc2C(=O)NS(=O)(=O)C2CC2)cc(C#N)n1CC12CC3CC(CC(C3)C1)C2` [Example 36, N-(1,3-benzothiazol-2-yl)-2-{5-[5-cyano-2-methyl-1-(tricyclo[3.3.1.1^3,7]dec-1-ylmethyl)-1H-pyrrol-3-yl]-6-[(cyclopropylsulfonyl)carbamoyl]pyridin-2-yl}-1,2,3,4-tetrahydroisoquinoline-8-carboxamide] showed an EC50 of 0.0008 µM.
In the case of `Cc1c(-c2ccc(N3CCc4cccc(C(=O)Nc5nc6ccccc6s5)c4C3)nc2C(=O)O)cccc1S(=O)(=O)N(C)C1C2CC3CC(C2)CC1C3` (stereo not shown) [Example 69, 6-[8-(1,3-benzothiazol-2-ylcarbamoyl)-3,4-dihydroisoquinolin-2(1H)-yl]-3-(2-methyl-3-{methyl[tricyclo[3.3.1.1^3,7]dec-2-yl]sulfamoyl}phenyl)pyridine-2-carboxylic acid], the EC50 is reported as 0.449 µM.
Molecule `Cc1c(-c2ccc(N3CCc4cccc(C(=O)Nc5nc6ccccc6s5)c4C3)nc2C(=O)O)cnn1CC1C2CC3CC(C2)CC1C3` (stereo not shown) [Example 62, 6-[8-(1,3-benzothiazol-2-ylcarbamoyl)-3,4-dihydroisoquinolin-2(1H)-yl]-3-[5-methyl-1-(tricyclo[3.3.1.1^3,7]dec-2-ylmethyl)-1H-pyrazol-4-yl]pyridine-2-carboxylic acid] has an EC50 of 0.0008 µM.
Work on `Cc1c(-c2ccc(N3CCc4cccc(C(=O)Nc5nc6ccccc6s5)c4C3)nc2C(=O)O)cccc1S(=O)(=O)NC12CC3CC(CC(C3)C1)C2` [Example 51, 6-[8-(1,3-benzothiazol-2-ylcarbamoyl)-3,4-dihydroisoquinolin-2(1H)-yl]-3-{2-methyl-3-[tricyclo[3.3.1.1^3,7]dec-1-ylsulfamoyl]phenyl}pyridine-2-carboxylic acid] yielded an EC50 of 0.164 µM.
With `O=C(Nc1nc2ccccc2s1)c1cccc2c1CN(c1ccc(-c3cnn(CC45CC6CC(C4)CC(N4CCS(=O)(=O)CC4)(C6)C5)c3)c(C(=O)O)n1)CC2` [Example 33, 6-[8-(1,3-benzothiazol-2-ylcarbamoyl)-3,4-dihydroisoquinolin-2(1H)-yl]-3-(1-{[3-(1,1-dioxidothiomorpholin-4-yl)tricyclo[3.3.1.1^3,7]dec-1-yl]methyl}-1H-pyrazol-4-yl)pyridine-2-carboxylic acid] the EC50 was greater than 1 µM.
Work on `COCCOCCOC12CC3CC(CC(Cn4ncc(-c5ccc(N6CCc7cccc(C(=O)Nc8nc9ccccc9s8)c7C6)nc5C(=O)O)c4C)(C3)C1)C2` [Example 63, 6-[8-(1,3-benzothiazol-2-ylcarbamoyl)-3,4-dihydroisoquinolin-2(1H)-yl]-3-[1-({3-[2-(2-methoxyethoxy)ethoxy]tricyclo[3.3.1.1^3,7]dec-1-yl}methyl)-5-methyl-1H-pyrazol-4-yl]pyridine-2-carboxylic acid] yielded an EC50 of 0.003 µM.
Molecule `Cc1c(-c2ccc(N3CCc4cccc(C(=O)Nc5nc6ccccc6s5)c4C3)nc2C(=O)O)cccc1N(C)C(=O)C12CC3CC(CC(C3)O1)C2` [Example 68, 6-[8-(1,3-benzothiazol-2-ylcarbamoyl)-3,4-dihydroisoquinolin-2(1H)-yl]-3-{2-methyl-3-[methyl(2-oxatricyclo[3.3.1.1^3,7]dec-1-ylcarbonyl)amino]phenyl}pyridine-2-carboxylic acid] has an EC50 of 0.022 µM.
`N#Cc1c(SC23CC4CC(CC(C4)C2)C3)cccc1-c1ccc(N2CCc3cccc(C(=O)Nc4nc5ccccc5s4)c3C2)nc1C(=O)O` [Example 48, 6-[8-(1,3-benzothiazol-2-ylcarbamoyl)-3,4-dihydroisoquinolin-2(1H)-yl]-3-{2-cyano-3-[tricyclo[3.3.1.1^3,7]dec-1-ylsulfanyl]phenyl}pyridine-2-carboxylic acid] was tested, and the EC50 was 0.008 µM.
`COCCC1(Cn2cc(-c3ccc(N4CCc5cccc(C(=O)Nc6nc7ccccc7s6)c5C4)nc3C(=O)O)cn2)C2CC3CC(C2)CC1C3` (stereo not shown) [Example 56, 6-[8-(1,3-benzothiazol-2-ylcarbamoyl)-3,4-dihydroisoquinolin-2(1H)-yl]-3-(1-{[2-(2-methoxyethyl)tricyclo[3.3.1.1^3,7]dec-2-yl]methyl}-1H-pyrazol-4-yl)pyridine-2-carboxylic acid] showed an EC50 of 0.017 µM.
Molecule `COC12CC3CC(CC(Cn4ncc(-c5ccc(N6CCc7cccc(C(=O)Nc8nc9ccccc9s8)c7C6)nc5C(=O)NS(=O)(=O)C(F)(F)F)c4C)(C3)C1)C2` [Example 40, N-(1,3-benzothiazol-2-yl)-2-[5-(1-{[3-methoxytricyclo[3.3.1.1^3,7]dec-1-yl]methyl}-5-methyl-1H-pyrazol-4-yl)-6-{[(trifluoromethyl)sulfonyl]carbamoyl}pyridin-2-yl]-1,2,3,4-tetrahydroisoquinoline-8-carboxamide] has an EC50 of 0.047 µM.
`[2H]C1([2H])c2c(cccc2C(=O)Nc2nc3ccccc3s2)CCN1c1ccc(-c2cnn(CC34CC5CC(CC(C5)C3)C4)c2C)c(C(=O)O)n1` [Example 44, 6-[8-(1,3-benzothiazol-2-ylcarbamoyl)-1,1-dideutero-3,4-dihydroisoquinolin-2(1H)-yl]-3-[5-methyl-1-(tricyclo[3.3.1.1^3,7]dec-1-ylmethyl)-1H-pyrazol-4-yl]pyridine-2-carboxylic acid] gave an EC50 of 0.0003 µM.
`Cc1c(-c2ccc(N3CCc4cccc(C(=O)Nc5nc6ccccc6s5)c4C3)nc2-c2nn[nH]n2)cnn1CC12CC3CC(CC(C3)C1)C2` [Example 19, N-(1,3-benzothiazol-2-yl)-2-{5-[5-methyl-1-(tricyclo[3.3.1.1^3,7]dec-1-ylmethyl)-1H-pyrazol-4-yl]-6-(2H-tetrazol-5-yl)pyridin-2-yl}-1,2,3,4-tetrahydroisoquinoline-8-carboxamide] gave an EC50 of 0.003 µM.
